Reference: BindingDB's records for doi:10.1021/acs.jmedchem.0c00807 (University of Oxford, 2020)

Test: Modulation of human utrophinA expressed in mouse H2K cells assessed as upregulation of utrophin production after 24 hrs by luciferase reporter gene assay

| EC50 | Compound |
| --- | --- |
| 71 nM | CCP(=O)(OC)c1ccc2nc(-c3cnc4ccccc4c3)oc2c1 (stereo not given) |
| 71 nM | CCP(=O)(OC)c1ccc2nc(-c3ccc4ccccc4c3)oc2c1 (stereo not given) |
| 157 nM | CCP(=O)(OC)c1ccc2oc(-c3ccc4cccnc4c3)nc2c1 (stereo not given) |
| 1140 nM | CCP(=O)(OC)c1ccc2oc(-c3ccc4cnccc4c3)nc2c1 (stereo not given) |
| 164 nM | CCP(=O)(OC)c1ccc2oc(-c3ccc4ncccc4c3)nc2c1 (stereo not given) |
| 234 nM | COP(=O)(c1ccc2nc(-c3ccc4ccccc4c3)oc2c1)C(C)C (stereo not given) |
| 548 nM | CCP(=O)(OC)c1ccc2oc(-c3ccc(C(F)(F)F)cc3)nc2c1 (stereo not given) |
| 1760 nM | CCP(=O)(OC)c1ccc2nc(-c3ccc(F)cc3F)oc2c1 (stereo not given) |
| 1770 nM | CCP(=O)(OC)c1ccc2oc(-c3ccc(C(F)(F)F)o3)nc2c1 (stereo not given) |
| 163 nM | CCP(=O)(OC)c1ccc2oc(/C=C/c3ccccc3)nc2c1 (stereo not given) |
| 861 nM | CCP(=O)(OC)c1ccc2oc(-c3ccccc3C(F)(F)F)nc2c1 (stereo not given) |
| 108 nM | CCOP(=O)(CC)c1ccc2nc(-c3ccc4ccccc4c3)oc2c1 (stereo not given) |
| 187 nM | CCS(=O)(=O)c1ccc2oc(-c3ccc4ccccc4c3)nc2c1 [BMN 195] |
| 1250 nM | CCOP(=O)(CC)c1ccc2oc(-c3ccc(F)cc3)nc2c1 (stereo not given) |
| 1140 nM | CCP(=O)(OC)c1ccc2nc(-c3ccc4ccncc4c3)oc2c1 (stereo not given) |
| 1950 nM | CCP(=O)(OC)c1ccc2nc(-c3cccc(Cl)c3Cl)oc2c1 (stereo not given) |
| 198 nM | CCP(=O)(OC)c1ccc2oc(-c3cccc(Cl)c3F)nc2c1 (stereo not given) |
| 2250 nM | CCP(=O)(OC)c1ccc2nc(-c3cccc(F)c3)oc2c1 (stereo not given) |
| 118 nM | CCP(=O)(OC)c1ccc2oc(-c3ccc(Cl)c(Cl)c3)nc2c1 (stereo not given) |
| 85 nM | CCP(=O)(OC)c1ccc2nc(-c3ccc4ncccc4c3)oc2c1 (stereo not given) |
| 244 nM | CCP(=O)(OC)c1ccc2oc(-c3cccc(Cl)c3Cl)nc2c1 (stereo not given) |
| 928 nM | CCP(=O)(OC)c1ccc2nc(-c3ccc4cccnc4c3)oc2c1 (stereo not given) |

| EC50 | Compound |
| --- | --- |
| 38 nM | CC(C)C(=O)Nc1ccc2oc(-c3ccc4ccccc4c3)nc2c1 |
| 4 nM | CCP(=O)(OC)c1ccc2oc(-c3ccc4ccccc4c3)nc2c1 (stereo not given) |
| 332 nM | CCP(=O)(OC)c1ccc2oc(-c3ccc4ccncc4c3)nc2c1 (stereo not given) |
| 826 nM | COP(=O)(c1ccccc1)c1ccc2oc(-c3ccc(F)cc3)nc2c1 (stereo not given) |
| 168 nM | CCP(=O)(OC)c1ccc2oc(-c3ccc(Cl)s3)nc2c1 (stereo not given) |
| 303 nM | COP(=O)(c1ccc2oc(-c3ccc(F)cc3)nc2c1)C(C)C (stereo not given) |
| 777 nM | CCP(=O)(OC)c1ccc2oc(-c3ccc(F)cc3F)nc2c1 (stereo not given) |
| 823 nM | CCP(=O)(OC)c1ccc2oc(-c3cccc(F)c3)nc2c1 (stereo not given) |
| 1510 nM | CCP(=O)(OC)c1ccc2oc(-c3sccc3Cl)nc2c1 (stereo not given) |
| 62 nM | CCP(=O)(OC)c1ccc2oc(-c3cnc4ccccc4c3)nc2c1 (stereo not given) |
| 766 nM | CCP(=O)(OC)c1ccc2nc(/C=C/c3ccccc3)oc2c1 (stereo not given) |
| 110 nM | O=S1(=O)CCCN1c1ccc2oc(-c3ccc4ccccc4c3)nc2c1 |
| 1230 nM | CCP(=O)(OC)c1ccc2nc(-c3ccc(F)cc3)oc2c1 (stereo not given) |
| 10 nM | CC(=O)Nc1ccc2oc(-c3ccc4ccccc4c3)nc2c1 |
| 146 nM | CNS(=O)(=O)c1ccc2oc(-c3ccc4ccccc4c3)nc2c1 |
| 1770 nM | CCP(=O)(OC)c1ccc2oc(-c3c(F)ccc(Cl)c3F)nc2c1 (stereo not given) |
| 26 nM | CCOP(=O)(CC)c1ccc2oc(-c3ccc4ccccc4c3)nc2c1 (stereo not given) |
| 1190 nM | CCP(=O)(OC)c1cccc2oc(-c3ccc(F)cc3)nc12 (stereo not given) |
| 148 nM | COP(=O)(c1ccc2oc(-c3ccc4ccccc4c3)nc2c1)C(C)(C)C (stereo not given) |
| 1510 nM | COP(=O)(c1ccc2nc(-c3ccc(F)cc3)oc2c1)C(C)C (stereo not given) |
| 34 nM | COP(=O)(c1ccc2oc(-c3ccc4ccccc4c3)nc2c1)C(C)C (stereo not given) |
| 1760 nM | CCP(=O)(OC)c1ccc2nc(-c3ccc4cnccc4c3)oc2c1 (stereo not given) |

| Compound | EC50 |
| --- | --- |
| CCP(=O)(OC)c1ccc2oc(-c3ccc(Cl)cc3)nc2c1 (stereo not given) | 112 nM |
